What all share (format): cell-based
One assay deals with T1, endogenous BCL-xL (Homo sapiens, UniProt Q07817).
T1 construct: endogenous in cells; host or cells: COR-L105 (ECACC No. 92031918); NCI-H1650 (ATCC No. CRL-5883)
Briefly: Degradation of endogenous BCL-xL in COR-L105 (ProteinSimple Jess). Conditions: COR-L105, 24 h, COR-L105, dose 300 nM, read-out: % BCL-xL vs. Untreated, COR-L105. The procedure:
The BCL-xL degrader low molecular weight compounds were tested against two endogenous cancer cell lines: • COR-L105: ECACC No. 92031918 cultured in RPMI-1640+10% FBS • NCI-H1650: (ATCC No. CRL-5883 cultured in RPMI-1640+10% FBS
The ability of the BCL-xL degrader low molecular weight compounds to degrade endogenous BCL-xL was assessed using the ProteinSimple 2-40 kDa Jess Separation Module.
Cell lines were cultured in media that is optimal for their growth at 5% CO2, 37° C. in a tissue culture incubator. Prior to seeding for the degradation assay, the cells were split at least 2 days before the assay to ensure optimal growth density. On the day of seeding, adherent cells were lifted off tissue culture flasks using 0.25% trypsin. Cell viability and cell density were determined using a cell counter (Vi-Cell XR Cell Viability Analyzer, Beckman Coulter). Cells with higher than 85% viability were seeded for the assay.
The COR-L105 and the NCI-H1650 cell line were seeded in 6-well clear TC-treated multiple well plates (Costar® cat. #3516). Cells were seeded at a density of 2,000,000 cells per well in 2.5 mL of standard growth media. Plates were incubated at 5% CO2, 37° C. overnight in a tissue culture incubator. On the day of dosing, BCL-xL degrader low molecular weight compounds and a BCL-xL inhibitor control were prepared at 6× in standard growth media. The prepared drug treatments were then added to the cells resulting in a final concentration of 100-300 nM and a final volume of 3.0 mL per well. A control well of untreated cells was also included in the study. Each drug concentration was tested in singlet. Plates were incubated at 5% CO2, 37° C. for 24 hours in a tissue culture incubator.
After 24 hours, the adherent cells were lifted off tissue culture plates using 0.25% trypsin. Standard growth media was added to quench the trypsin and centrifuged for 5 minutes at 1500 rpm. Cell pellets were washed once with cold PBS and centrifuged for 5 minutes at 1500 rpm. Cells were then washed with 1 mL cold PBS and transferred to a 1.5 mL eppendorf tube. Cells were centrifuged for 10 minutes at ≥10,000 g at 4° C. in a benchtop mini-centrifuge. The entire supernatant was discarded and cells were resuspended thoroughly in 50 μL of RIPA lysis buffer, generated by the manufacturer's protocol (ProteinSimple, Cat. #CBS401: Lysis Kit—RIPA Buffer for Charge Assays). Lysates were incubated on ice for 30 minutes. Following incubation, lysates were spun in a benchtop mini-centrifuge for 15 minutes at full speed at 4° C. Supernatant was carefully transferred to a new eppendorf tube for downstream analysis.
Protein was quantified using a Pierce™ BCA Protein Assay Kit (ThermoFisher, cat #23225) following the manufacturer's instructions. A standard curve was prepared by adding 25 μL of each concentration of reference samples from a Pierce™ Bovine Serum Albumin Standard Pre-Diluted Set (ThermoFisher, cat #23208). Each reference sample was run in duplicate. Testing samples were prepared by diluting cell lysates 1:5 in UltraPure™ DNase/RNase-Free Distilled Water and tested in duplicates of 25 μL each. The BCA working reagent was prepared by addition of 50 parts of BCA Reagent A with 1 part of BCA Reagent B. For each testing well, 200 μL of BCA working reagent was added. The plate was incubated at 37° C. for 30 minutes. A SpectraMax M Series Multi-Mode Microplate Reader was used to measure the absorbance at 562 nm. A standard curve generated by the Pierce™ Bovine Serum Albumin Standard Pre-Diluted Set was used to normalize and calculate the BCA concentration of cell lysates. Only values that fell within the range of the standard curve were accepted for quantification.
The ProteinSimple 2-40 kDa Jess Separation Module was used to detect BCL-xL degradation in treated versus untreated lysates following the manufacturer's instructions (25-Capillary Cartridge, 8 pack, 2-40 kDa, cat #SM W012). […]

A further assay has as its system COR-L105. The assay is described as follows: CellTiter-Glo proliferation assay, COR-L105. Conditions: Homo sapiens, COR-L105, 120 h, COR-L105, 5 days; for Emax: read-out: COR-L105 Span (max). The essentials:
(§1)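 Both lines grown in RPMI-1640 + 10% FBS. COR-L105 plated flat at 1,000 cells/well overnight; NCI-H1650 grown as spheroids, 3,000 cells/well, 72 h. Compounds at 0.508 nM-10 μM final for 5 days, 37° C. ATP read by CellTiter-Glo (3D version for spheroids); IC50 from variable-slope fit normalized to untreated cells.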
(In ATP-based viability assays light output follows the ATP content of the culture.)

In the next assay the test system is NCI-H1650. The assay is described as follows: CellTiter-Glo 3D proliferation assay, NCI-H1650 spheroids. To be noted: Homo sapiens, NCI-H1650, 120 h, 5 days; for Emax: read-out: NCI-H1650 Span (Amax). The essentials:
as §1

T1 sequence (Q07817 whole entry): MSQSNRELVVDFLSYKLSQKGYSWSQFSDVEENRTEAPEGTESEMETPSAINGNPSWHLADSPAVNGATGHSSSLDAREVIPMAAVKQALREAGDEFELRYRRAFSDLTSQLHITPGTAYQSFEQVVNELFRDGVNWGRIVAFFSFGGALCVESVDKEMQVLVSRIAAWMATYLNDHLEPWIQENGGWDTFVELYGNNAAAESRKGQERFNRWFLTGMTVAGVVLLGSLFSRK

Broadly, the IC50 is the concentration that gives 50% inhibition. Turning to `Cc1ncsc1-c1ccc([C@H](C)NC(=O)[C@@H]2C[C@@H](O)CN2C(=O)[C@@H](NC(=O)c2ccc(C(=O)N3CCN(CC#Cc4ccc(OCCCc5sc(N6CCCc7c6nnc(Nc6nc8ccccc8s6)c7C)nc5C(=O)O)c(F)c4)CC3)cc2F)C(C)(C)C)cc1` [Example 43, 2-(3-(benzo[d]thiazol-2-ylamino)-4-methyl-6,7-dihydropyrido [2,3-c]pyridazin-8(5H)-yl)-5-(3-(2-fluoro-4-(3-(4-(3-fluoro-4-(((S)-1-((2S,4R)-4-hydroxy-2-(((S)-1-(4-(4-methylthiazol-5-yl)phenyl)ethyl)carbamoyl)pyrrolidin-1-yl)-3,3-dimethyl-1-oxobutan-2-yl)carbamoyl)benzoyl)piperazin-1-yl)prop-1-yn-1-yl)phenoxy)propyl)thiazole-4-carboxylic acid], the remaining activity at 0.3 µM at endogenous BCL-xL came out at 19.9%. For the same compound, the IC50 with COR-L105 is 74.8 nM; with NCI-H1650, 4.22 nM. For the same compound, the Emax came to 85.9% in the assay with COR-L105 and 80.3% with NCI-H1650.

Turning to `Cc1ncsc1-c1ccc(CNC(=O)[C@@H]2C[C@@H](O)CN2C(=O)[C@@H](NC(=O)C2(F)CC2)C(C)(C)C)c(OCC(=O)N(C)CCCCCN2CCN(CC#Cc3ccc(OCCCc4sc(N5CCCc6c5nnc(Nc5nc7ccccc7s5)c6C)nc4C(=O)O)c(F)c3)CC2)c1` [Example 54, 2-(3-(benzo[d]thiazol-2-ylamino)-4-methyl-6,7-dihydropyrido [2,3-c]pyridazin-8(5H)-yl)-5-(3-(2-fluoro-4-(3-(4-(5-(2-(2-(((2S,4R)-1-((S)-2-(1-fluorocyclopropane-1-carboxamido)-3,3-dimethylbutanoyl)-4-hydroxypyrrolidine-2-carboxamido)methyl)-5-(4-methylthiazol-5-yl)phenoxy)-N-methylacetamido)pentyl)piperazin-1-yl)prop-1-yn-1-yl)phenoxy)propyl)thiazole-4-carboxylic acid], the remaining activity at 0.3 µM at endogenous BCL-xL is 47.9%. Also, the IC50 in the assay with COR-L105 worked out at 31.6 nM; with NCI-H1650, 5.75 nM. Besides, the Emax with COR-L105 amounted to 91.9%; with NCI-H1650 it was 76.7%.

In the case of `Cc1ncsc1-c1ccc([C@H](C)NC(=O)[C@@H]2C[C@@H](O)CN2C(=O)[C@@H](NC(=O)C2CC3(C2)CC(C(=O)N2CCN(CC#Cc4ccc(OCCCc5sc(N6CCCc7c6nnc(Nc6nc8ccccc8s6)c7C)nc5C(=O)O)c(F)c4)CC2)C3)C(C)(C)C)cc1` (stereo partly drawn) [Example 41, 2-(3-(benzo[d]thiazol-2-ylamino)-4-methyl-6,7-dihydropyrido [2,3-c]pyridazin-8(5H)-yl)-5-(3-(2-fluoro-4-(3-(4-(6-(((S)-1-((2S,4R)-4-hydroxy-2-(((S)-1-(4-(4-methylthiazol-5-yl)phenyl)ethyl)carbamoyl)pyrrolidin-1-yl)-3,3-dimethyl-1-oxobutan-2-yl)carbamoyl)spiro[3.3]heptane-2-carbonyl)piperazin-1-yl)prop-1-yn-1-yl)phenoxy)propyl) thiazole-4-carboxylic acid], at endogenous BCL-xL, the remaining activity at 0.3 µM stood at 30.3%. Also, in the assay on COR-L105, the half-inhibitory concentration (IC50) came out at 220 nM and the Emax turned out to be 88.2%. Further, in the assay on NCI-H1650, the IC50 is 8.83 nM and the Emax came out at 106%.

For the compound `Cc1ncsc1-c1ccc([C@H](C)NC(=O)[C@@H]2C[C@@H](O)CN2C(=O)[C@@H](NC(=O)CC2(CC(=O)N3CCN(CC#Cc4ccc(OCCCc5sc(N6CCCc7c6nnc(Nc6nc8ccccc8s6)c7C)nc5C(=O)O)c(F)c4)CC3)CCCC2)C(C)(C)C)cc1` [Example 39, 2-(3-(benzo[d]thiazol-2-ylamino)-4-methyl-6,7-dihydropyrido [2,3-c]pyridazin-8(5H)-yl)-5-(3-(2-fluoro-4-(3-(4-(2-(1-(2-(((S)-1-((2S,4R)-4-hydroxy-2-(((S)-1-(4-(4-methylthiazol-5-yl)phenyl)ethyl)carbamoyl)pyrrolidin-1-yl)-3,3-dimethyl-1-oxobutan-2-yl)amino)-2-oxoethyl)cyclopentyl)acetyl)piperazin-1-yl)prop-1-yn-1-yl)phenoxy)propyl) thiazole-4-carboxylic acid], on endogenous BCL-xL, the remaining activity at 0.3 µM amounted to 63.6%. For the same compound, the IC50 in the assay on COR-L105 turned out to be 524 nM; with NCI-H1650, 38.4 nM. Further, the Emax in the assay on COR-L105 came out at 95.3%; in the assay on NCI-H1650, 96.4%.

On to `Cc1ncsc1-c1ccc([C@H](C)NC(=O)[C@@H]2C[C@@H](O)CN2C(=O)[C@@H](NC(=O)CSCC(=O)N2CCN(CC#Cc3ccc(OCCCc4sc(N5CCCc6c5nnc(Nc5nc7ccccc7s5)c6C)nc4C(=O)O)c(F)c3)CC2)C(C)(C)C)cc1` [Example 37, 2-(3-(benzo[d]thiazol-2-ylamino)-4-methyl-6,7-dihydropyrido [2,3-c]pyridazin-8(5H)-yl)-5-(3-(2-fluoro-4-(3-(4-(2-((2-(((S)-1-((2S,4R)-4-hydroxy-2-(((S)-1-(4-(4-methylthiazol-5-yl)phenyl)ethyl)carbamoyl)pyrrolidin-1-yl)-3,3-dimethyl-1-oxobutan-2-yl)amino)-2-oxoethyl)thio)acetyl)piperazin-1-yl)prop-1-yn-1-yl)phenoxy)propyl)thiazole-4-carboxylic acid], for which the remaining activity at 0.3 µM on endogenous BCL-xL came to 82.4%. In addition, in the assay with COR-L105, the IC50 stood at 623 nM and the Emax came to 88.5%. In addition, in the assay with NCI-H1650, the IC50 amounted to 39.7 nM and the Emax was determined as 107%.

As to `Cc1ncsc1-c1ccc(CNC(=O)[C@@H]2C[C@@H](O)CN2C(=O)[C@@H](NC(=O)CCCCCCCCCCC(=O)N2CCN(CC#Cc3ccc(OCCCc4sc(N5CCCc6c5nnc(Nc5nc7ccccc7s5)c6C)nc4C(=O)O)c(F)c3)CC2)C(C)(C)C)c(O)c1` [Example 45, 2-(3-(benzo[d]thiazol-2-ylamino)-4-methyl-6,7-dihydropyrido [2,3-c]pyridazin-8(5H)-yl)-5-(3-(2-fluoro-4-(3-(4-(12-(((S)-1-((2S,4R)-4-hydroxy-2-((2-hydroxy-4-(4-methylthiazol-5-yl)benzyl)carbamoyl)pyrrolidin-1-yl)-3,3-dimethyl-1-oxobutan-2-yl)amino)-12-oxododecanoyl)piperazin-1-yl)prop-1-yn-1-yl)phenoxy)propyl)thiazole-4-carboxylic acid], on endogenous BCL-xL, the remaining activity at 0.3 µM stood at 40.1%. For the same compound, in the assay on COR-L105, the IC50 came out at 68.3 nM and the Emax was 83%. Also, in the assay on NCI-H1650, half-maximal inhibition (IC50) was put at 6.27 nM and the Emax is 81.2%.

These data come from patent publication US20240376094A2, “SELECTIVE BCL-XL PROTAC COMPOUNDS AND METHODS OF USE” (Les Laboratoires Servier, priority 2021, published 2024).
